Test results published in patent publication US5952189A (priority 1997, dated 1999).
Entries after “also recorded” stand apart in the source; their conditions may differ. Where two headings read alike, the source gives them in different places.

What was measured:
U937 cells [1] = experiment: cells; assay type: cell-based, human; details: for Effect on DNA fragmentation induced by TNF or UV light: result in words
[2] = system: TNF-induced hepatocyte apoptosis; experiment: TNF-induced hepatotoxicity in mice (serum transaminases); assay type: in vivo, Balb/c mice
Description: In this example the concept that a protease inhibitor such as DK120 may attenuate inappropriate apoptosis that causes tissue damage in systemic inflammatory response syndrome (SIRS) was tested. TNF-induced hepatocyte apoptosis in mice was performed as described by Leist et al. ((1995) J. Immunol. 154:1778-1786). Briefly, Balb/c mice were injected ip with […] murine TNF combined with […] Actinomycin D/mouse. Twelve h later, mice were anesthetized and bled from the heart to measure serum transaminase levels, which are standard clinically used indicators of liver damage. Mice that were treated with protease inhibitors were injected ip with these compounds 30 min. prior to TNF. Alanine aminotransferase (ALT) and aspartate aminotransferase (AST) were assayed using a commercially available kit (Sigma). […] However, treatment with DK120 caused a doss-dependent decrease in serum transaminase levels. […] However, a drug that nonspecifically blocks all apoptotic pathways that normally function to maintain homeostasis may not be clinically desirable. Subsequent studies were performed to determine if DK120 could also suppress hepatocyte apoptosis in response to a different stimulus.
^1 Mice (2 for each treatment) were injected ip +/- DK120 30 min prio
to TNF and Actinomycin D. Twelve h later serum transaminase levels were
(§1) To further explore the specificity of DK120 attenuation of TNF-induced hepatotoxicity, several compounds were tested that were found previously not to inhibit apoptotic protease proteolytic activity as measured against a synthetic substrate (data not shown). […] Therefore, the protection mediated by DK120 is not a property of any boron-containing molecule.
^1 Mice (3 for each treatment) were injected ip +/- the inhibitors 30
min prior to TNF and Actinomycin D. Twelve h later serum transaminase

apoptotic protease [3] = experiment: Inhibition of apoptotic protease proteolytic activity against a synthetic substrate; assay type: biochemical, human; details: data not shown
Description: Proteolytic activity was assayed using synthetic substrates selective for different known proteases. All assays were set up by adding 0.02 ml of sample (or known enzyme as a positive control) plus 0.18 ml of appropriate substrate dissolved in PBS PH 7.5 in triplicate in flat bottom microtiter plates, incubated for the indicated length of time at room temperature, and the OD at 405 nm measured using a plate reader.
Elastase-like activity was measured using N-methoxysuccinyl-ala-ala-pro-valp-nitroanilide (SEQ ID NO: 3) (MAAPV) at 0.25 mM as a substrate. For convenience and maximum sensitivity, these assays were routinely incubated 20 h to monitor protease purification. Under these conditions, the elastase dose response was linear up to a concentration of 6.0 μg/ml (OD of 1.0), see FIG. 3C. […] In order to quantitate the activity of the purified protease, identical assays were set up but kinetic readings of OD were taken every hour from 1-6 h. One unit of enzyme was calculated as the amount of enzyme that hydrolyzes 1.0 nmol substrate/h.
as §1

apoptotic protease [4] = details: unspecified protease; cited from earlier work
BT-20 = assay type: cell-based, human; details: for % DNA fragmentation: BT-20, UV 0.5 J/cm^2, 8 h, no inhibitor 44 ± 3.6
3T3 = experiment: Inhibition of UV-induced DNA fragmentation in 3T3 cells; assay type: cell-based, murine; details: UV 0.5 J/cm^2, 8 h, no inhibitor 38 ± 1.9
Description: (§2) To determine if these findings were unique to U937 or if other cell lines also require protease activity to undergo apoptosis, the effects of several inhibitors on apoptosis induced by UV light in the human mammary carcinoma, BT-20, the murine fibroblast cell line, 3T3, and the human myeloid leukemia, HL-60 were tested. For the BT-20 and 3T3 cells, target cells were pretreated for one hour (with or without inhibitors as indicated in the table) and exposed to UV light at 0.5 J/cm^2 and then incubated for eight hours prior to assessing DNA fragmentation. HL-60 cells were pretreated for one hour (with or without inhibitors as indicated in the table) and exposed to UV at 0.2 J/cm^2 and then incubated for two hours prior to assessing DNA fragmentation.
(§3) DNA fragmentation assays were carried out according to the protocol of Wright S. C., et al. (1,992) J. Cell. Biochem. 48, 344-355. Target cells were labeled with ^3 H-thymidine and plated in triplicate in flat bottom microtiter plates. Cells were incubated for the indicated length of time for each experiment in the presence of TNF or various inhibitors. In some experiments, cells were treated with UV light at 245 nm using a UV Crosslinker (Fisher Scientific). Assays were harvested and counted on a Packard matrix 96 beta counter. Percent DNA fragmentation was calculated as for the nuclear assay described in Example 3. In assays to test the effects of various inhibitors, the pH of extra wells containing assay buffer, target cells, and each inhibitor was always checked at the beginning and end of each assay to assure that the pH remained at 7.5.

HL-60 = experiment: Inhibition of UV-induced DNA fragmentation in HL-60 cells; assay type: cell-based, human; details: UV 0.2 J/cm^2, 2 h, no inhibitor 49 ± 2.0
Description: as §2
as §3, with “In assays to test the effects of various inhibitors, the pH of extra wells containing assay buffer, target cells, and each inhibitor was always checked at the beginning and end of each assay to assure that the pH remained at 7.5.” left out

U937 cells [5] = experiment: Visualization of DNA fragmentation in U937 cells by agarose gel electrophoresis; assay type: cell-based, human
Description: In FIG. 2, U937 cells were pretreated with and without TPCK 10 μM for 30 min, exposed to UV light 0.15 J/cm^2, incubated another 2.5 h, then the DNA extracted and analyzed by agarose gel electrophoresis. Lane 1 of FIG. 2 contains molecular weight markers, lane 2 contains untreated U937, lane 3 contains U937 treated with TPCK, lane 4 contains U937 treated with UV light, lane 5 contains U937 treated with TPCK and UV light.
DNA fragmentation was carried out according to the procedure of Example 2. After the desired treatments, the cells were lysed and debris was removed by centrifugation at 13,000×g for 10 sec. DNA in the supernatant was ethanol precipitated after phenol extraction. Equivalent amounts of material from a fixed number of cells were loaded and electrophoresed on a 1.0% agarose slab gel. DNA was visualized by ethidium bromide staining.

isolated U937 nuclei = experiment: DNA fragmentation assay using isolated U937 nuclei; assay type: cell-based, human; details: inhibitor 50 μM (FIG. 6B)
Description: U937 cells were labeled with ^3 H-thymidine by culturing overnight with isotope at 0.5 μCi/ml. The cells were pelleted, washed once, and the cytoplasmic membrane lysed by resuspending the cells in assay buffer (50 mM Tris, 250 mM sucrose 10 mM MgSO4, pH 7.5) plus 0.02% NP-40. Nuclei were then pelleted and resuspended in assay buffer at 1×10^6 /ml. The assay was set up in triplicate in flat bottom microtiter plates under sterile conditions. Nuclei (0.05 ml) were mixed with 0.05 ml of sample diluted in 50 mM Tris pH 7.5 or buffer alone to determine total counts. Plates were incubated for 5 h at 37° C. and then harvested by the addition of 0.1 ml of harvesting buffer (10 mM Tris, 10 mM EDTA, 0.3% Triton X-100, pH 7.5). Plates were harvested by filtration onto glass fiber paper and counted on a Packard Matrix 96 beta counter. Percent DNA fragmentation was calculated as follows: […]

[6] = system: chymotrypsin-like enzymes; details: cited from earlier work
HL-60 cells = details: Bruno et al. 1992; cited from earlier work
[7] = Poe et al. 1991; cited from earlier work

## isopropylboronic acid [IBA]
U937 cells [1]; U937 cells, TNF and UV light, compound inactive at this concentration
  Inactive Compounds, Highest Concentration Tested (highest nontoxic concentration, inactive): 20 µM
U937 cells [1]; U937 cells
  Effect on DNA fragmentation induced by TNF or UV light: does not inhibit DNA fragmentation
[2]; Table 10, 10 mg/kg
  Protection from TNF-induced hepatotoxicity: does not protect from TNF-induced hepatotoxicity
[2]; mouse, in vivo
  ALT: 393 +/- 52 U/ml
Apoptotic protease [3]
  Inhibition of apoptotic protease proteolytic activity: no protease inhibitory activity
Apoptotic protease [4]
  Protease inhibitory activity: non-inhibitory; also recorded: devoid of protease inhibitory activity

## Cc1ccc(S(=O)(=O)N[C@@H](Cc2ccccc2)C(=O)CCl)cc1 [TPCK, N-1-tosylamide-2-phenylethylchloromethyl ketone]
U937 cells [1]; Homo sapiens, U-937, read-out: IC50 (Active Concentration), TNF and UV-light induced apoptosis
  IC50: 2 µM
U937 cells [1]; U937, TNF 1.0 ng/ml plus cycloheximide or UV 0.1 J/cm^2, 1 h pretreatment (FIG. 1)
  Concentration of maximum suppression of DNA fragmentation: 2.0 µM
U937 cells [1]; U937 cells
  Effect on DNA fragmentation induced by TNF or UV light: suppressed DNA fragmentation; also recorded: dose-dependently inhibit DNA fragmentation
BT-20; inhibitor 1 μM
  % DNA fragmentation: 19 ± 5.5%
BT-20; inhibitor 5 μM
  % DNA fragmentation: 0 ± 0%
BT-20; summary of Table 2 (BT-20, 3T3, HL-60)
  Effect on UV-induced DNA fragmentation: effectively blocked DNA fragmentation
3T3; inhibitor 1 μM
  % DNA fragmentation: 32 ± 1.1%
3T3; inhibitor 5 μM
  % DNA fragmentation: 18 ± 0.8%
HL-60; inhibitor 1 μM
  % DNA fragmentation: 19 ± 2.0%
HL-60; inhibitor 5 μM
  % DNA fragmentation: 1 ± 2.3%
U937 cells [5]; TPCK 10 μM 30 min, UV 0.15 J/cm^2, 2.5 h
  Effect on UV light-induced DNA fragmentation, agarose gel: completely abolished UV light-induced DNA fragmentation
U937 cells [5]; TPCK alone, no UV
  DNA fragments on agarose gel, compound alone: no DNA fragments
Isolated U937 nuclei
  Inhibition of nuclear DNA fragmenting activity of protease from UV-treated cells: inhibited
[6]
  Inhibition of chymotrypsin / chymotrypsin-like enzymes: potent inhibitor of chymotrypsin-like enzymes
HL-60 cells
  Effect on chemotherapeutic drug-induced apoptosis: inhibits chemotherapeutic drug-induced apoptosis

## human granzyme B: serine protease of cytotoxic lymphocyte granules
[7]
  Activity on methoxysuccinyl-ala-ala-pro-val-thiobenzyl ester: inactive
